The source of these data is patent publication US11596598B2, “Chlorogenic acid-containing composition for nasal administration” (SICHUAN JIUZHANG BIOLOGICAL SCIENCE AND TECHNOLOGY CO., LTD, priority 2019, dated 2023).

For one data set, the system named is Rat C6 glioma cells. The experiment in a line: Inhibitory effect of nasal administration and intraperitoneal injection on glioma in rats. The class given is in vivo, SD rats. Particulars: rat C6 brain glioma; for Tumor size: imaging on 21st day. The protocol: 1.1.3 Positive Control Drug: Temozolomide
40 SD rats, half male and half […], weighing 180-220 g.
Rat C6 glioma cells were incubated in 10% calf serum DMEM complete culture medium, subcultured in a monolayer culture method and allowed to grow to the required number of cells, and then subcultured once before inoculation. Cells in logarithmic growth phase are collected, digested with trypsin, centrifuged, and made to 1×10^4/10 μL cell suspension with Hanks solution, then stored in a refrigerator at 4° C. for inoculation.
Rats were anesthetized by intraperitoneal injection of 10% chloral hydrate, and the hair on the top of the rat's head was cut off and disinfected with iodine. The scalp was cut to expose the skull, and an electronic dental drill was used to open the cranium 1 mm behind the coronal suture and 3 mm to the right of the sagittal suture. 10 μL C6 cell suspension was injected, the bone hole was sealed with bone wax, and the incision was sutured. 5 days after tumor inoculation, the rats were examined by imaging, and tumorigenic rats were selected.
The tumorigenic rats were randomly divided into 8 groups, 5 rats for each group, and the groups included nasal administration groups: chlorogenic acid bulk drug group, the nasal powder group of example 1, the nasal powder group of example 5, the aerosol group of example 6, and the aerosol group of example 7; intraperitoneal injection group of chlorogenic acid, temozolomide positive control drug group, and blank group. For nasal administration, each test drug group received corresponding drugs at a dose of 20 mg/kg chlorogenic acid daily; intraperitoneal injection group of chlorogenic acid was administrated at a dose of 20 mg/kg chlorogenic acid daily; temozolomide positive control group was administered intragastrically at a dose of 25 mg/kg daily. Each test group started to be given the drug on the 6th day after tumor inoculation for 20 consecutive days, and on the 21st day each drug group and the blank group were imaged to check the tumor size.
SPSS software was used to perform t test, analysis of variance and multiple comparisons test.
The post-processing platform was used to measure the tumor volume on the 3DFSPGR sequence, and the tumor inhibition rate was calculated.

A short description of data set [1]: Bioavailability of nasal administration in beagle dogs (chlorogenic acid content in blood). Particulars: male, dog, serum, other: nasal administration, 4 mg/kg chlorogenic acid. Type of data set: in vivo. The protocol: • Six male beagle dogs, weighing 10-13 kg.
Six beagle dogs were randomly divided into groups and cross-administered with one week interval.
After fasting for 12 h, test animals were given chlorogenic acid, nasal powder, and aerosol at a dose of 4 mg/kg chlorogenic acid by nasal administration, and one additional dog was injected intravenously with chlorogenic acid at 4 mg/kg. 3 h after administration, dogs were allowed to feed;
10 min, 30 min, 60 min, 90 min, 120 min, 150 min after administration of beagle dogs, 3 mL intravenous blood was collected, heparin was used to anticoagulate, and then 1 mL serum was separated by centrifugation, and stored in a refrigerator at −20° C.
To 100 μL serum, were added methanol-0.2% phosphoric acid (80:20) solution (100 μL), the solution of puerarin in methanol as internal standard (50 mg/mL, 100 μL), and 100 μL methanol. The resultant solution was vortexed for 3 min, allowed to stand, and centrifuged (12000 rpm) for 10 min. The supernatant was collected as the serum test solution.
(§1) Octadecylsilane-bonded silica gel column (150 mm×4.6 mm, 5 μm) and guard column were used; mobile phase A (methanol) and mobile phase B (0.2% phosphoric acid) were used to perform desorption according to a gradient elution procedure; the detection wavelength was 325 nm; the flow rate was 1 mL/min; the column temperature was 40° C.
20 μL of the serum test solution was accurately measured, and injected into the liquid chromatograph, to record the chromatogram. The internal standard method was used to calculate the content of chlorogenic acid in serum with accompanying standard curve.

Data set [2] is described as follows: Blood-brain barrier permeability in rats after nasal administration (chlorogenic acid content in brain tissue). To be noted: SD, rat, other: nasal administration, 20 mg/kg chlorogenic acid. The class given is in vivo. The protocol:
150 SD rats, half male and half […], weighing 180-220 g.
SD rats were randomly divided into 5 groups, 30 rats for each group, and each test drug was administrated nasally at a dose of 20 mg/kg chlorogenic acid. The tissue samples were collected at 10 min, 30 min, 60 min, 90 min, 120 min, and 150 min after administration.
After administration, each experimental group was intraperitoneally injected with 1% pentobarbital sodium (0.2 mL) for deep anesthesia according to the time point, and then a needle was inserted from the left ventricle. The right ventricle was cut, and physiological saline was injected with a syringe for cardiac perfusion until the liver and spleen turned gray, and the brain tissue was taken out.
The brain tissue was placed in a homogenizer, to which was added 0.9% sodium chloride injection according to brain tissue: normal saline=1:1 (w/v) and then homogenized. To 200 μL homogenate, were added 50 mg/mL puerarin internal standard solution (200 μL) and methanol (200 μL), and then the mixture was vortexed and centrifuged. The supernatant was collected as the brain tissue test solution.
as §1
20 μL of the brain tissue test solution was accurately measured, and injected into the liquid chromatograph, to record the chromatogram. The internal standard method was used to calculate the content of chlorogenic acid in […] with accompanying standard curve.

In another data set the test system is nasopharyngeal carcinoma. Description: Inhibitory effect on nasopharyngeal carcinoma in rats: nasopharyngeal tissue paraffin microscopy. Type of data set: in vivo, SD rats. Particulars: nasal administration, 20 mg/kg chlorogenic acid once a day, 5 rats per group, dinitrosopiperazine/phorbol ester induced, 20th week. From the text:
1.1.3 Positive Control Drug: Retinoic Acid
SD rats, half male and half […], weighing 180-220 g.
(§2) SD rats were randomly divided into 8 groups, 5 rats for each group, and the groups included nasal administration groups: chlorogenic acid bulk drug group, the nasal powder group of example 1, the nasal powder group of example 5, the aerosol group of example 6, and the aerosol group of example 7; intraperitoneal injection group of chlorogenic acid, positive control drug group, and blank group. Amongst, for nasal administration, each test drug group received corresponding drugs at a dose of 20 mg/kg chlorogenic acid daily, once a day; intraperitoneal injection group of chlorogenic acid was administrated at a dose of 20 mg/kg chlorogenic acid daily, once a day; retinoic acid positive drug group was administered intragastrically at a dose of 90 mg/kg daily, once a day. Rats in each experimental group were given dinitrosopiperazine and phorbol ester to promote cancer. Dinitrosopiperazine was injected into the armpit at a dose of 40 mg/kg to induce carcinogenesis, twice a week, for a total of 15 weeks. After dinitrosopiperazine was injected for two weeks, phorbol diester was injected at a dose of 50 ng/rat, twice a week, for a total of 15 weeks. The rats were sacrificed at the 20th week, rhinitis tissues were dissected, histopathology was observed, and telomerase was detected.
Rat nasopharyngeal tissues were fixed with 10% formaldehyde, decalcified in Jenkin's solution, further fixed in neutral formalin, and embedded in paraffin to make serial sections, then stained with hematoxylin and eosin and observed under a microscope.

The subject of another data set is telomerase. The experiment in a line: Telomerase detection in nasopharyngeal tissue of rats. Type of data set: in vivo, SD rats. Particulars: rat nasopharyngeal tissue homogenate, Telomerase ELISA-PCR kit, 20th week. The protocol: as §2, with “Dinitrosopiperazine was injected into the armpit at a dose of 40 mg/kg to induce carcinogenesis, twice a week, for a total of 15 weeks. After dinitrosopiperazine was injected for two weeks, phorbol diester was injected at a dose of 50 ng/rat, twice a week, for a total of 15 weeks.” left out
Nasopharyngeal tissue homogenate was weighed and centrifuged, and then the supernatant was collected and processed according to Telomerase ELISA-PCR kit instruction (Shanghai Boehringer Mannheim Co.). After obtaining PCR reaction product, the telomerase activity was quantitatively detected, followed by concentration and electrophoresis on polyacrylamide gel, then staining with silver nitrate.
For orientation: In an ELISA, binding on a coated surface is turned into a signal by an enzyme label.

[3] abbreviates: intraperitoneal injection, 25 mg/kg daily for 20 days.
Setting [4] is: 10 min after nasal administration.
Setting [5] is: 30 min after nasal administration.
[6] abbreviates: 60 min after nasal administration.
Where [7] appears, read: 90 min after nasal administration.
The mark [8] stands for this setting: 120 min after nasal administration.
Setting [9] is: 150 min after nasal administration.
The mark [10] stands for this setting: nasal administration, 20 mg/kg chlorogenic acid daily for 20 days.
Where [11] appears, read: listed as chlorogenic acid raw material.

In the data set on Rat C6 glioma cells (setting [3]), `Cn1nnc2c(C(N)=O)ncn2c1=O` [Temozolomide] yielded a Tumor inhibition rate of 39.57% and a Tumor size of 37.63 ± 3.21 mm3.

With `O=C(/C=C/c1ccc(O)c(O)c1)O[C@@H]1C[C@](O)(C(=O)O)C[C@@H](O)[C@H]1O` [Chlorogenic acid bulk drug, Chlorogenic acid], the concentration at 10 min in data set [1] (setting [4]) turned out to be 1020 ng/mL; in data set [2] (setting [4]), 0 ng/g. For the same compound, the concentration at 30 min in data set [1] (setting [5]) was 5740 ng/mL; in data set [2] (setting [5]), 320 ng/g. Moreover, the concentration at 60 min in data set [1] (setting [6]) came out at 2200 ng/mL; in data set [2] (setting [6]), 860 ng/g. Besides, the concentration at 90 min in data set [1] (setting [7]) was 980 ng/mL; in data set [2] (setting [7]), 650 ng/g. In addition, the concentration at 120 min in data set [1] (setting [8]) came to 520 ng/mL; in data set [2] (setting [8]) it was 320 ng/g. The concentration at 150 min in data set [1] (setting [9]) is 220 ng/mL; in data set [2] (setting [9]), 130 ng/g. Besides, the Tumor inhibition rate in the data set with Rat C6 glioma cells (setting [10]) amounted to 22.35%. In the data set with Rat C6 glioma cells (setting [10]), this compound returned a Tumor size of 48.35 ± 4.83 mm3. For the same compound, the “Dysplastic tissue (number of rats, nasopharyngeal tissue paraffin microscopy)” value with nasopharyngeal carcinoma is reported as 3; in the data set on nasopharyngeal carcinoma (setting [11]), “three”. For the same compound, the “Normal tissue (number of rats, nasopharyngeal tissue paraffin microscopy)” value in the data set with nasopharyngeal carcinoma was determined as 1. Also, the “Simple hyperplasia (number of rats, nasopharyngeal tissue paraffin microscopy)” value is on record as 1 in the data set with nasopharyngeal carcinoma and “one” in the data set with nasopharyngeal carcinoma (setting [11]). In the data set on telomerase (nasal administration, 20 mg/kg chlorogenic acid once a day), this compound had a telomerase activity of 0.56±0.17.

Compound `CC1=C(/C=C/C(C)=C/C=C/C(C)=C/C(=O)O)C(C)(C)CCC1` [Retinoic acid] showed a telomerase activity in the data set on telomerase (intragastric administration, 90 mg/kg once a day) of 0.22±0.12.
